Assay results from ChEMBL document CHEMBL4270669 (J Med Chem, 2018).
Activity calls are given as the source filed them. No cut-off for these calls is given here.

Assays:
[1] = system: A2058; experiment: Induction of cell cycle arrest in human A2058 cells assessed as accumulation at G1 phase at 5 uM after 24 hrs by Hoechst33342-staining based FACS analysis; format: functional
[2] = system: SK-OV-3; experiment: Antiproliferative activity against human SKOV3 cells at 10 uM after 72 hrs by ATPlite based assay; format: functional, cell-based
[3] = system: SK-OV-3; experiment: Induction of cell cycle arrest in human SKOV3 cells assessed as decrease in cell levels at S phase at 2 uM after 24 hrs by Hoechst33342-staining based FACS analysis; format: functional
[4] = system: A2058; experiment: Antiproliferative activity against human A2058 cells at 10 uM after 72 hrs by ATPlite based assay; format: functional, cell-based
[5] = system: A2058; experiment: Induction of cell cycle arrest in human A2058 cells assessed as decrease in cell levels at G2/M phase at 5 uM after 24 hrs by Hoechst33342-staining based FACS analysis; format: functional
[6] = system: SK-OV-3; experiment: Induction of cell cycle arrest in human SKOV3 cells assessed as accumulation at G1 phase at 2 uM after 24 hrs by Hoechst33342-staining based FACS analysis; format: functional
[7] = system: A2058; experiment: Induction of cell cycle arrest in human A2058 cells assessed as decrease in cell levels at S phase at 5 uM after 24 hrs by Hoechst33342-staining based FACS analysis; format: functional
[8] = system: SK-OV-3; experiment: Induction of cell cycle arrest in human SKOV3 cells assessed as decrease in cell levels at G2/M phase at 2 uM after 24 hrs by Hoechst33342-staining based FACS analysis; format: functional
[9] = target: T1, Phosphatidylinositol 4,5-bisphosphate 3-kinase catalytic subunit delta isoform (Homo sapiens, UniProt O00329)
T1 sequence (O00329 whole entry): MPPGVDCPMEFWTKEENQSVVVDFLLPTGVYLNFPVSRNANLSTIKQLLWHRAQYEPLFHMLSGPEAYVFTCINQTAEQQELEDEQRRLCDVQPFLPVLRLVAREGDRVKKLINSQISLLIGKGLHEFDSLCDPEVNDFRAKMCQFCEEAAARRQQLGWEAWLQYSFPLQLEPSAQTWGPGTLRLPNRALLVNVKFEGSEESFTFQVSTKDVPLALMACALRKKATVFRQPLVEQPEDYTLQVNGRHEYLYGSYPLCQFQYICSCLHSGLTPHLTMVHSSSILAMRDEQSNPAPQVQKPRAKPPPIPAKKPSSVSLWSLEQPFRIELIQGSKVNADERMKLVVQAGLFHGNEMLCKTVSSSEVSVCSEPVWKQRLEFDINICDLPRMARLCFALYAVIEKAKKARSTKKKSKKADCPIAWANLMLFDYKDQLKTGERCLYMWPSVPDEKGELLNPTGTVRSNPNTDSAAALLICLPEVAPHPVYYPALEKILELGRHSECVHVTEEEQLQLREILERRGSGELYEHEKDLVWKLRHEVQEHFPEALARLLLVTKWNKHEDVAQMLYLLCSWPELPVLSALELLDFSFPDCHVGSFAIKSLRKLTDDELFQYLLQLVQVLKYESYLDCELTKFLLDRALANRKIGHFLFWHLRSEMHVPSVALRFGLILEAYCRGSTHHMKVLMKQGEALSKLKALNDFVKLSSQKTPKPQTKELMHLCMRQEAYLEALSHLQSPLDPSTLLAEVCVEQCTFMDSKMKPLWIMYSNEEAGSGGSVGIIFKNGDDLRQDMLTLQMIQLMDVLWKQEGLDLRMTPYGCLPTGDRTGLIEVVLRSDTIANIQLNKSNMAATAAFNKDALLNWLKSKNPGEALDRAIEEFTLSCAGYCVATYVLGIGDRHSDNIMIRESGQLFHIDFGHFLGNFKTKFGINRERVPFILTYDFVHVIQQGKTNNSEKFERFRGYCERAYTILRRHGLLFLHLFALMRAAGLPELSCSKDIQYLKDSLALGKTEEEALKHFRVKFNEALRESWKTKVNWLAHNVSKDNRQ
Description: Inhibition of human PI3Kdelta (108 to 1044 residues) expressed in mammalian expression system by KINOMEscan assay

[10] = Ratio of drug level in Sprague-Dawley rat brain to plasma at 10 mg/kg, po administered as single dose; format: ADME, organism-based; conditions: read-out: BPR
[11] = system: Rattus norvegicus; experiment: Increase in insulin levels in Sprague-Dawley rat plasma at 10 mg/kg, po administered as single dose; format: functional, organism-based
[12] = system: Mus musculus; experiment: Increase in insulin levels in C57BL/6JRj mouse plasma at 50 mg/kg, po administered as single dose; format: functional, organism-based
[13] = target: Phosphatidylinositol 3-kinase catalytic subunit type 3 (Homo sapiens, UniProt Q8NEB9); experiment: Inhibition of human VPS34 (282 to 879 residues) expressed in mammalian expression system by KINOMEscan assay
[14] = target: Phosphatidylinositol 4,5-bisphosphate 3-kinase catalytic subunit beta isoform (Homo sapiens, UniProt P42338)
Description: Inhibition of human PI3Kbeta (118 to 1070 residues) expressed in mammalian expression system by KINOMEscan assay

[15] = target: Phosphatidylinositol 4-kinase beta (Homo sapiens, UniProt Q9UBF8)
Description: Inhibition of human PI4Kbeta (1 to 828 residues) expressed in mammalian expression system by KINOMEscan assay

[16] = target: Serine/threonine-protein kinase mTOR (Homo sapiens, UniProt P42345)
Description: Inhibition of human mTOR (1382 to 2549 residues) expressed in mammalian expression system by KINOMEscan assay

[17] = Drug uptake in Sprague-Dawley rat brain at 10 mg/kg, po administered as single dose after 4 hrs; format: ADME, organism-based; conditions: read-out: Drug uptake
[18] = target: Phosphatidylinositol 4,5-bisphosphate 3-kinase catalytic subunit alpha isoform (Homo sapiens, UniProt P42336)
Description: Inhibition of human PI3Kalpha (108 to 1068 residues) expressed in mammalian expression system by KINOMEscan assay

[19] = target: Phosphatidylinositol 4,5-bisphosphate 3-kinase catalytic subunit gamma isoform (Homo sapiens, UniProt P48736)
Phosphatidylinositol 4,5-bisphosphate 3-kinase catalytic subunit gamma isoform, sequence (P48736 whole entry, canonical isoform): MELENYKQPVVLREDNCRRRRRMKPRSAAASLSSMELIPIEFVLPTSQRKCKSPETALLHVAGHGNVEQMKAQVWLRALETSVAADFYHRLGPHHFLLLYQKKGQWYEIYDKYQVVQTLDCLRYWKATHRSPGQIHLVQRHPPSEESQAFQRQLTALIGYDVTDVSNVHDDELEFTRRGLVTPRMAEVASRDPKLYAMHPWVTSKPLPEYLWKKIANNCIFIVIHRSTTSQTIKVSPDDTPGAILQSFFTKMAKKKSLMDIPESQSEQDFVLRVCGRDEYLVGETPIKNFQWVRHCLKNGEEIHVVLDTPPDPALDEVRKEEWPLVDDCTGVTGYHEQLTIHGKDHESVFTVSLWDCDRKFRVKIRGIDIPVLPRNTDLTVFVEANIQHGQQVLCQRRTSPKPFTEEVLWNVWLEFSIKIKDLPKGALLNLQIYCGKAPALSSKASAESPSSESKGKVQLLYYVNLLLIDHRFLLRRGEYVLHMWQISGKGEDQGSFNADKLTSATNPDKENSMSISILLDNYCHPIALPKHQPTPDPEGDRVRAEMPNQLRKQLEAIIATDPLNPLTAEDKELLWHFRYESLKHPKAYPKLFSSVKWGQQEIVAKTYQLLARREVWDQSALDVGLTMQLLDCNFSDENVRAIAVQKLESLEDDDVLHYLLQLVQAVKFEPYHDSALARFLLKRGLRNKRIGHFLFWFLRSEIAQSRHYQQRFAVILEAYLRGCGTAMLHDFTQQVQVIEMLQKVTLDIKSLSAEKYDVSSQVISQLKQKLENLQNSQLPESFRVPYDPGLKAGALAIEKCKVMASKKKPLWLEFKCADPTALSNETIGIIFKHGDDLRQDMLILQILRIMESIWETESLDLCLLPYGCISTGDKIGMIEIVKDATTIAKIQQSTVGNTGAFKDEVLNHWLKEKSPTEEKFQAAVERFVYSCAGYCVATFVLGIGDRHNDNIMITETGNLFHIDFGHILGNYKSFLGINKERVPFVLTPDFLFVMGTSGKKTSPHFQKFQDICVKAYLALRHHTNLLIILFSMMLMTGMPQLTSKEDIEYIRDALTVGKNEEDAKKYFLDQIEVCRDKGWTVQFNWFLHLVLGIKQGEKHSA
Description: Inhibition of human PI3Kgamma (144 to 1102 residues) expressed in mammalian expression system by KINOMEscan assay

Phosphatidylinositol 4,5-bisphosphate 3-kinase catalytic subunit beta isoform, sequence (P42338 whole entry, canonical isoform): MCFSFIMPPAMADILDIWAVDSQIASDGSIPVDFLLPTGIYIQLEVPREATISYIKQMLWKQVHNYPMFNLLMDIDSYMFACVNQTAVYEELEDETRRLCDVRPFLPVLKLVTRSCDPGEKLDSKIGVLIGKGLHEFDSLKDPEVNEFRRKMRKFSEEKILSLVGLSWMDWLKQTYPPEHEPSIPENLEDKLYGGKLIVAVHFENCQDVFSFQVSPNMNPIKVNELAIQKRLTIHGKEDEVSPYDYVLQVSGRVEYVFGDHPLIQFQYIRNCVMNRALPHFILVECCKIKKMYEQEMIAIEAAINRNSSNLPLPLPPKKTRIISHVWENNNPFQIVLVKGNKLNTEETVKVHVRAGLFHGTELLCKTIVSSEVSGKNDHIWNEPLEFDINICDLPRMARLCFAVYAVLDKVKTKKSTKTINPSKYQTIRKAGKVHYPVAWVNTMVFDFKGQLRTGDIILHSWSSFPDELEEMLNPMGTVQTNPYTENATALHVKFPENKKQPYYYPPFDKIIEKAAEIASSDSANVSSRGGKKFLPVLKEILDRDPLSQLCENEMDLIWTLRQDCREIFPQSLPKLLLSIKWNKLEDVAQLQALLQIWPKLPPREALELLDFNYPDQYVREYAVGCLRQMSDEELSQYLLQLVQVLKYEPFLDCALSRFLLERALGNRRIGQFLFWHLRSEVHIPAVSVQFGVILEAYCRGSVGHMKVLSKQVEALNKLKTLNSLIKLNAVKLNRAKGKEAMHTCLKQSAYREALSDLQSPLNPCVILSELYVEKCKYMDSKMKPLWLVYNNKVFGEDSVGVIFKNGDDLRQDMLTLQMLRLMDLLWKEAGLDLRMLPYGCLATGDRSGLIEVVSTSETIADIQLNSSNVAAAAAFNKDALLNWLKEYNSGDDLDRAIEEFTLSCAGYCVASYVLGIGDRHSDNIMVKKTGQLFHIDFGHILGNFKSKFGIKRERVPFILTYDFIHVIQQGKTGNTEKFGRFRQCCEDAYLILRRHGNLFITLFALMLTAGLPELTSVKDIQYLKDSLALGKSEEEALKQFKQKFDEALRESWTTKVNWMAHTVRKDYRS
Phosphatidylinositol 4,5-bisphosphate 3-kinase catalytic subunit alpha isoform, sequence (P42336 whole entry, canonical isoform): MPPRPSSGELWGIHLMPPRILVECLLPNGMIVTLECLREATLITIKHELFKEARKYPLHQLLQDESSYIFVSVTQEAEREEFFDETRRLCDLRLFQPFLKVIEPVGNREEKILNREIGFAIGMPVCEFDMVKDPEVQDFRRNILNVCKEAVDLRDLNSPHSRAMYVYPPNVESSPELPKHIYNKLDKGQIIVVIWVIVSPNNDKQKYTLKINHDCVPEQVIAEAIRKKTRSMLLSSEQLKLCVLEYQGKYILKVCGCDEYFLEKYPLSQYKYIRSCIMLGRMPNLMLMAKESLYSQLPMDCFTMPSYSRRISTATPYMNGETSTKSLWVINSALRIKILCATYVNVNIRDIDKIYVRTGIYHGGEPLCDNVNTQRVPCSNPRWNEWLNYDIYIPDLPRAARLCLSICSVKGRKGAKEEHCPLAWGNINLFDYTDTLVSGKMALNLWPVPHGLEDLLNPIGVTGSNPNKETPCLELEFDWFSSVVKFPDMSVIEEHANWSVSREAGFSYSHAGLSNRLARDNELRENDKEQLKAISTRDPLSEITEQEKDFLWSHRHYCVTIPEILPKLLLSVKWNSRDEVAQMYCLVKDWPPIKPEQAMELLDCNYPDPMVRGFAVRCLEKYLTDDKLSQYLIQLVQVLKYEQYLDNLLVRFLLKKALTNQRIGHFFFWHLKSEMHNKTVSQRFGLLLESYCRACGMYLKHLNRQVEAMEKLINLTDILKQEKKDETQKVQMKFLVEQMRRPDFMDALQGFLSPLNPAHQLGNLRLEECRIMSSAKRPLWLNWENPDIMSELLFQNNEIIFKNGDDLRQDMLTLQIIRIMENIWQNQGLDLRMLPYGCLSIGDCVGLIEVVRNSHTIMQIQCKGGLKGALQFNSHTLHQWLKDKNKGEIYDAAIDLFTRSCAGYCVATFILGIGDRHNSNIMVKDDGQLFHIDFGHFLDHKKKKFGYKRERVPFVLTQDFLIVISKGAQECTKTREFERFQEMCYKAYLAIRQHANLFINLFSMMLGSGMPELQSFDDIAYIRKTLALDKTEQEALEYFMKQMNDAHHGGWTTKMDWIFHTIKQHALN
Phosphatidylinositol 4-kinase beta, sequence (Q9UBF8 whole entry): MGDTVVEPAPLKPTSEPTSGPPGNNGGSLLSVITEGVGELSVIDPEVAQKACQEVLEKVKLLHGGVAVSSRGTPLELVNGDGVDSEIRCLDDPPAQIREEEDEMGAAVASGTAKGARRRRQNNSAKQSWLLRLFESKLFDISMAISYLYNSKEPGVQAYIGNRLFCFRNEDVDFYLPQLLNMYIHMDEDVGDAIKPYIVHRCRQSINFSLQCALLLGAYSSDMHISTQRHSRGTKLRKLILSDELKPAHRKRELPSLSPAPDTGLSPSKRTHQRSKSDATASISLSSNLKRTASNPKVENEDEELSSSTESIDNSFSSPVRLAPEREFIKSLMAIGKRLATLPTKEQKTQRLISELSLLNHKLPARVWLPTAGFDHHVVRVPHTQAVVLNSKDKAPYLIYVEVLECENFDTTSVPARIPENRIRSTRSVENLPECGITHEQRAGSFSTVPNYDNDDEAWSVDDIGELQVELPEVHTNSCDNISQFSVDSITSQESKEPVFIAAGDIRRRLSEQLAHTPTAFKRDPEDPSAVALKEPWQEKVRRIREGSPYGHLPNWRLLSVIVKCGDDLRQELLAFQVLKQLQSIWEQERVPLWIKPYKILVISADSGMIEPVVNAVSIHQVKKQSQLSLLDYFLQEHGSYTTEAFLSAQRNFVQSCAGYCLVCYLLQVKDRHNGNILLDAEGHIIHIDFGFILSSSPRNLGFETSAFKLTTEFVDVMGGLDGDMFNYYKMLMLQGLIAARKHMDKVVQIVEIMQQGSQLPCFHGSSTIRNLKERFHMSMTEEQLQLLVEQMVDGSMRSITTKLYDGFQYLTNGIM
Phosphatidylinositol 3-kinase catalytic subunit type 3, sequence (Q8NEB9 whole entry, the tested form may be a part, canonical isoform): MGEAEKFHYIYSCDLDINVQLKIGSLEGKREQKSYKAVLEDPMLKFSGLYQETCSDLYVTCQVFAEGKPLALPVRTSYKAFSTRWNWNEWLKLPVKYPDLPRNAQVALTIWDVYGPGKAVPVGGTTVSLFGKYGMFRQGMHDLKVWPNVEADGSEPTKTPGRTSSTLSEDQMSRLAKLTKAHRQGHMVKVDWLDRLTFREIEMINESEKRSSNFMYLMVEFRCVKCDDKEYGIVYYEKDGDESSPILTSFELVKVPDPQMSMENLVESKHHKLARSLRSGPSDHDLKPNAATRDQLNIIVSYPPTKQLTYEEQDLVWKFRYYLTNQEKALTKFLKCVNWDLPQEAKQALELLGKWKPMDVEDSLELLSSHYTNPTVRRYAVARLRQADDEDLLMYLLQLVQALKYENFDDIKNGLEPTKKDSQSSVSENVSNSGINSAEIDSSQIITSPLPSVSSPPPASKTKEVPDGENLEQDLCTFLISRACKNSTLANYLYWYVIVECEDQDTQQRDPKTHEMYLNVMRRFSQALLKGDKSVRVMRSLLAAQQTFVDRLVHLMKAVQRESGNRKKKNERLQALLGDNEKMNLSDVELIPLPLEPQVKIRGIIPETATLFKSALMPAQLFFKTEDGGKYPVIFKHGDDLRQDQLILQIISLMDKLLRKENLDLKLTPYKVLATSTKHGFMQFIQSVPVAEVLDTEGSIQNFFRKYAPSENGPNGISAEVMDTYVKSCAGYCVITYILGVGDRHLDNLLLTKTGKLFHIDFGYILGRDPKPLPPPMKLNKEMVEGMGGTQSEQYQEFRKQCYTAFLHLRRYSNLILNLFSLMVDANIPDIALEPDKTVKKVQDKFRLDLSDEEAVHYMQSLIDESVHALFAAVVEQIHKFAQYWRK

Compound: CO[C@H]1C[C@@H]2CC[C@@H](C)[C@@](O)(O2)C(=O)C(=O)N2CCCC[C@H]2C(=O)O[C@H]([C@H](C)C[C@@H]2CC[C@@H](O)[C@H](OC)C2)CC(=O)[C@H](C)/C=C(\C)[C@@H](O)[C@@H](OC)C(=O)[C@H](C)C[C@H](C)/C=C/C=C/C=C/1C
- Activity [1]: Active
- Activity [2]: inactive
- Activity [3]: Active
- Activity [4]: Active
- Activity [5]: Active
- Activity [6]: Active
- Activity [7]: Active
- Activity [8]: Active

Compound: CCC(CC)n1cnc2c(-c3cnc(N)cn3)nc(N3CC4CCC(C3)O4)nc21
- Kd [9]: > 30 µM
- Kp [10]: 0.178
- Activity [11]: inactive
- Activity [12]: inactive
- Kd [13]: 8.3 µM
- Kd [14]: 20 µM
- Kd [15]: > 30 µM
- Kd [16]: 0.85 nM
- concentration at 4 h [17]: 170 ng/g
- Kd [18]: 2700 nM
- Kd [19]: 22 µM
